In US20260248787A9, “MEDICAMENT FOR TREATING CANCER COMPRISING OPTICALLY ACTIVE AZABICYCLO RING DERIVATIVE” (Sumitomo Pharma Co., Ltd., priority 2023, published 2026):
Like-named read-outs stand apart in the source and are kept apart here.

Assay: Phase 1/2 clinical study, plasma pharmacokinetic evaluation
Assay type: in vivo, human
Details: human, plasma, oral
Procedure: In the present test of the present compound, PK samples have been collected in up to 24 patients dosed in dose groups of 40, 80, 100, and 120 mg BID Arm A, and in dose groups of 40 and 60 mg BID Arm B (Table 6). Large preliminary PK inter-patient variability was observed.
(1) In the present study, PK samples have been collected in up to 42 patients dosed in dose groups of 40, 80, 100, 120, 140 and 200 mg BID Arm A, and in dose groups of 40, 60, 100, and 200 mg BID Arm B (Table 15).
(2) In the present study, PK samples have been collected in patients dosed in dose groups of 40, 80, 100, 120, 140, 200, and 300 mg BID Arm A, and in dose groups of 40, 60, 100, 200, and 300 mg BID Arm B (Table 16).

[1] = 100 mg, 100 mg BID Arm A, C1D1, N=2, mean
[2] = 100 mg, 100 mg BID Arm A, C2D1, N=1
[3] = 100 mg, 100 mg BID Arm B, Cycle 1 Day 1, N=4, mean
[4] = 100 mg, 100 mg BID Arm B, Cycle 2 Day 1, N=4, mean
[5] = 100 mg, Cycle 1 Day 1, 100 mg BID Arm A (without azole), N=2, mean
[6] = 100 mg, Cycle 1 Day 1, 100 mg BID Arm B (with azole), N=4, mean
[7] = 100 mg, Cycle 2 Day 1, 100 mg BID Arm A (without azole), N=1
[8] = 100 mg, Cycle 2 Day 1, 100 mg BID Arm B (with azole), N=4, mean
[9] = 100 mg, Table 15 cut-off, 100 mg BID Arm A, Cycle 1 Day 1, N=2, mean
[10] = 100 mg, Table 15 cut-off, 100 mg BID Arm A, Cycle 2 Day 1, N=1
[11] = 120 mg, 120 mg BID Arm A, C1D1, N=6, mean
[12] = 120 mg, 120 mg BID Arm A, C2D1, N=6, mean
[13] = 120 mg, Cycle 1 Day 1, 120 mg BID Arm A (without azole), N=6, mean
[14] = 120 mg, Cycle 2 Day 1, 120 mg BID Arm A (without azole), N=6, mean
[15] = 120 mg, Table 15 cut-off, 120 mg BID Arm A, Cycle 1 Day 1, N=6, mean
[16] = 120 mg, Table 15 cut-off, 120 mg BID Arm A, Cycle 2 Day 1, N=6, mean
[17] = 140 mg, 140 mg BID Arm A, Cycle 1 Day 1, N=6 (incl. two patients with MDS), mean
[18] = 140 mg, 140 mg BID Arm A, Cycle 2 Day 1, N=5 (incl. two patients with MDS), mean
[19] = 140 mg, Cycle 1 Day 1, 140 mg BID Arm A (without azole), N=6 (two MDS patients included, one pt excluded), mean
[20] = 140 mg, Cycle 2 Day 1, 140 mg BID Arm A (without azole), N=5 (two MDS patients included, one pt excluded), mean
[21] = 140 mg, Cycle 2 Day 1, 140 mg BID Arm B (with azole), N=1
[22] = 200 mg, 200 mg BID Arm A, Cycle 1 Day 1, N=4, mean
[23] = 200 mg, 200 mg BID Arm B, Cycle 1 Day 1, N=6, mean
[24] = 200 mg, 200 mg BID Arm B, Cycle 2 Day 1, N=2, mean
[25] = 200 mg, Cycle 1 Day 1, 200 mg BID Arm A (without azole), N=5, mean
[26] = 200 mg, Cycle 1 Day 1, 200 mg BID Arm B (with azole), N=11, mean
[27] = 200 mg, Cycle 2 Day 1, 200 mg BID Arm A (without azole), N=3, mean
[28] = 200 mg, Cycle 2 Day 1, 200 mg BID Arm B (with azole), N=5 (three patients excluded), mean
[29] = 300 mg, Cycle 1 Day 1, 300 mg BID Arm A (without azole), N=4, mean
[30] = 300 mg, Cycle 1 Day 1, 300 mg BID Arm B (with azole), N=3 (one patient pending re-assay), mean
[31] = 300 mg, Cycle 2 Day 1, 300 mg BID Arm A (without azole), N=3, mean
[32] = 300 mg, Cycle 2 Day 1, 300 mg BID Arm B (with azole), N=1 (one patient pending re-assay)

Question: Which Cmax [1] does the source give for `C=C1C[C@@H]2CC[C@H]1[C@@H](C(=O)N1CCC3(CC1)CN(c1ncncc1Oc1ccc(F)cc1C(=O)N(C(C)C)C(C)C)C3)N2` [the present compound, 5-fluoro-2-[(4-{7-[(1S,3S,4R)-5-methylidene-2-azabicyclo[2.2.2]octane-3-carbonyl]-2,7-diazaspiro[3.5]nonan-2-yl}pyrimidin-5-yl)oxy]-N,N-di(propan-2-yl)benzamide] here?
Answer: 1380 ng/mL

Question: And the Tmax [1]?
Answer: 3 h

Question: And the half-life (100 mg, 100 mg BID Arm A, C1D1, N=2, mean, read-out: t1/2 (converted))?
Answer: 5.64 h

Question: What about the AUC(0-t) [2] of the same compound?
Answer: 6060 ng·h/mL

Question: What about the Cmax [2] of the same compound?
Answer: 2840 ng/mL

Question: And the Tmax [2]?
Answer: 1 h

Question: And the half-life (100 mg, 100 mg BID Arm A, C2D1, N=1, read-out: t1/2 (converted))?
Answer: 2.88 h

Question: And the AUC(0-t) [3]?
Answer: 5600 ng·h/mL

Question: What about the Cmax [3] of the same compound?
Answer: 1650 ng/mL

Question: And the AUC(0-t) [4]?
Answer: 8350 ng·h/mL

Question: And the Cmax [4]?
Answer: 1810 ng/mL

Question: What about the AUC(0-t) [5] of the same compound?
Answer: 4940 ng·h/mL

Question: And the Cmax [5]?
Answer: 1380 ng/mL

Question: And the AUC(0-t) [6]?
Answer: 5600 ng·h/mL

Question: What about the Cmax [6] of the same compound?
Answer: 1650 ng/mL

Question: What about the AUC(0-t) [7] of the same compound?
Answer: 6060 ng·h/mL

Question: And the Cmax [7]?
Answer: 2840 ng/mL

Question: And the AUC(0-t) [8]?
Answer: 8350 ng·h/mL

Question: What about the Cmax [8] of the same compound?
Answer: 1810 ng/mL

Question: What about the AUC(0-t) [9] of the same compound?
Answer: 4940 ng·h/mL

Question: And the Cmax [9]?
Answer: 1380 ng/mL

Question: And the AUC(0-t) [10]?
Answer: 6060 ng·h/mL

Question: What about the Cmax [10] of the same compound?
Answer: 2840 ng/mL

Question: What about the AUC(0-t) [11] of the same compound?
Answer: 6250 ng·h/mL

Question: What about the Cmax [11] of the same compound?
Answer: 2280 ng/mL

Question: And the Tmax [11]?
Answer: 1.25 h

Question: And the half-life (120 mg, 120 mg BID Arm A, C1D1, N=6, mean, read-out: t1/2 (converted))?
Answer: 2.87 h

Question: What about the AUC(0-t) [12] of the same compound?
Answer: 7860 ng·h/mL

Question: And the Cmax [12]?
Answer: 1980 ng/mL

Question: And the Tmax [12]?
Answer: 1.2 h

Question: And the half-life (120 mg, 120 mg BID Arm A, C2D1, N=6, mean, read-out: t1/2 (converted))?
Answer: 3.26 h

Question: What about the AUC(0-t) [13] of the same compound?
Answer: 6290 ng·h/mL

Question: And the Cmax [13]?
Answer: 2320 ng/mL

Question: And the AUC(0-t) [14]?
Answer: 7970 ng·h/mL

Question: And the Cmax [14]?
Answer: 1980 ng/mL

Question: And the AUC(0-t) [15]?
Answer: 6290 ng·h/mL

Question: And the Cmax [15]?
Answer: 2320 ng/mL

Question: And the AUC(0-t) [16]?
Answer: 7970 ng·h/mL

Question: And the Cmax [16]?
Answer: 1980 ng/mL

Question: And the AUC(0-t) [17]?
Answer: 3570 ng·h/mL

Question: What about the Cmax [17] of the same compound?
Answer: 1480 ng/mL

Question: What about the AUC(0-t) [18] of the same compound?
Answer: 4200 ng·h/mL

Question: And the Cmax [18]?
Answer: 1670 ng/mL

Question: And the AUC(0-t) [19]?
Answer: 3570 ng·h/mL

Question: What about the Cmax [19] of the same compound?
Answer: 1480 ng/mL

Question: And the AUC(0-t) (140 mg, Cycle 1 Day 1, 140 mg BID Arm B (with azole), N=2, mean)?
Answer: 7000 ng·h/mL

Question: What about the AUC(0-t) [20] of the same compound?
Answer: 4200 ng·h/mL

Question: What about the Cmax [20] of the same compound?
Answer: 1670 ng/mL

Question: What about the AUC(0-t) [21] of the same compound?
Answer: 5520 ng·h/mL

Question: What about the Cmax [21] of the same compound?
Answer: 1770 ng/mL

Question: And the AUC(0-t) [22]?
Answer: 9650 ng·h/mL

Question: And the Cmax [22]?
Answer: 3850 ng/mL

Question: What about the AUC(0-t) [23] of the same compound?
Answer: 21200 ng·h/mL

Question: And the Cmax [23]?
Answer: 6260 ng/mL

Question: What about the AUC(0-t) [24] of the same compound?
Answer: 16700 ng·h/mL

Question: And the Cmax [24]?
Answer: 4360 ng/mL

Question: And the AUC(0-t) [25]?
Answer: 12100 ng·h/mL

Question: And the Cmax [25]?
Answer: 3870 ng/mL

Question: And the AUC(0-t) [26]?
Answer: 21200 ng·h/mL

Question: What about the Cmax [26] of the same compound?
Answer: 5700 ng/mL

Question: What about the AUC(0-t) [27] of the same compound?
Answer: 12000 ng·h/mL

Question: What about the Cmax [27] of the same compound?
Answer: 3850 ng/mL

Question: What about the AUC(0-t) [28] of the same compound?
Answer: 16800 ng·h/mL

Question: What about the Cmax [28] of the same compound?
Answer: 4070 ng/mL

Question: And the AUC(0-t) [29]?
Answer: 15900 ng·h/mL

Question: What about the Cmax [29] of the same compound?
Answer: 6070 ng/mL

Question: What about the AUC(0-t) [30] of the same compound?
Answer: 26000 ng·h/mL

Question: What about the Cmax [30] of the same compound?
Answer: 5970 ng/mL

Question: What about the AUC(0-t) [31] of the same compound?
Answer: 12400 ng·h/mL

Question: What about the Cmax [31] of the same compound?
Answer: 3060 ng/mL

Question: And the AUC(0-t) [32]?
Answer: 20500 ng·h/mL

Question: What about the Cmax [32] of the same compound?
Answer: 4210 ng/mL

Question: What about the half-life (Arm A (without azole), FIGS. 4A to 4D cut-off, read-out: Mean t1/2) of the same compound?
Answer: 2 to 6 h

Question: What about the half-life (Arm A, 40-120 mg BID, read-out: Mean plasma t1/2) of the same compound?
Answer: 2.82 to 5.64 h

Question: And the half-life (Arm A, 40-200 mg BID (up to 42 patients), read-out: Mean apparent half-life)?
Answer: 2 to 5 h

Question: And the half-life (Arm A, 40-300 mg BID, read-out: Mean apparent half-life)?
Answer: 2 to 4 h

Question: And the half-life (Arm B (with azole), FIGS. 4A to 4D cut-off, read-out: Mean t1/2)?
Answer: 3 to 7 h

Question: And the half-life (Arm B, 40-60 mg BID, read-out: Mean plasma t1/2)?
Answer: 2.61 to 7.29 h

Question: And the half-life (Arm B, 40-200 mg BID (up to 42 patients), read-out: Mean apparent half-life)?
Answer: 3 to 7 h

Question: What about the half-life (Arm B, 40-300 mg BID, read-out: Mean apparent half-life) of the same compound?
Answer: 3 to 7 h

Question: What about the Tmax (post dose, Arms A and B, first cut-off) of the same compound?
Answer: ≤ 2 h
